Consider four compounds from patent US20240343717A1, “MICROBIOCIDAL PYRAZOLE DERIVATIVES” (SYNGENTA CROP PROTECTION AG, priority 2021, published 2024).

Each structure is given as a SMILES string.

The melting point is the temperature, or range, at which the solid turns liquid.

In data set [1] the test system is Gibberella zeae (Fusarium graminearum). Description: whole plant or invertebrate. The data set is classed as in vivo. The settings on record: in Triticum aestivum, read-out: control of Gibberella zeae.
Data set [2] has as its system Mycosphaerella arachidis (Cercospora arachidicola). Description: Mycosphaerella arachidis (Cercospora arachidicola) / liquid culture (early leaf spot). To be noted: growth inhibition photometrically 4-5 days after application, read-out: control of Mycosphaerella arachidis. The data set is classed as cell-based. The procedure, abridged: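 Spores taken straight from cryostorage are suspended in potato dextrose broth and added to test compound in DMSO. Plates are incubated at 24° C. Growth inhibition is scored photometrically 4-5 days after application.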

In data set [3] the test system is Magnaporthe grisea (Pyricularia Oryzae). Put plainly: whole plant or invertebrate. The data set is classed as in vivo. To be noted: foliar, read-out: control of Magnaporthe grisea.
Data set [4] deals with Mycosphaerella graminicola (Septoria tritici). Description: Mycosphaerella graminicola (Septoria tritici) / liquid culture (Septoria blotch). The data set is classed as cell-based. To be noted: Zymoseptoria tritici, growth inhibition photometrically 4-5 days after application, read-out: control of Mycosphaerella graminicola. Put shortly: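 Conidia suspended in potato dextrose broth and added to test compound supplied in DMSO in 96-well plates. Incubated at 24 °C, and growth inhibition read photometrically 4-5 days after application.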

The subject of data set [5] is Monographella nivalis (Microdochium nivale). Put plainly: Monographella nivalis (Microdochium nivale) / liquid culture (foot rot cereals). The data set is classed as cell-based. The settings on record: growth inhibition photometrically 4-5 days after application, read-out: control of Monographella nivalis. Put shortly:
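Fungal conidia mixed directly into potato dextrose broth and added to test compound delivered in DMSO. Incubated at 24° C; growth inhibition read photometrically 4-5 days after application.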

Data set [6] concerns Fusarium culmorum. Put plainly: microbe, parasite or virus in culture. It is filed as cell-based. To be noted: read-out: control of Fusarium culmorum.
The test system of data set [7] is Phaeosphaeria nodorum (Septoria nodorum). Description: Phaeosphaeria nodorum (Septoria nodorum) / wheat / leaf disc preventative (glume blotch). It is filed as in vivo. To be noted: Parastagonospora nodorum, foliar, wheat leaf segments, inoculated 2 days after application. The procedure, abridged: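 Wheat cv. Kanzler leaf segments on agar sprayed preventatively with formulated compound diluted in water, then inoculated with spore suspension 2 days after application. Incubated at 20° C, 75% rh, 12 h light/12 h dark; percent disease control versus untreated scored 5-7 days after application.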

Data set [8] deals with Fusarium culmorum. Put plainly: whole plant or invertebrate. It is filed as in vivo. The settings on record: in Triticum aestivum, read-out: control of Fusarium culmorum.
In the next data set the test system is Sclerotinia sclerotiorum. Put plainly: Sclerotinia sclerotiorum / liquid culture (cottony rot). The data set is classed as cell-based. The settings on record: growth inhibition photometrically 3-4 days after application, read-out: control of Sclerotinia sclerotiorum. The procedure, abridged:
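Mycelial fragments from fresh liquid culture in potato dextrose broth added to test compound in DMSO. Incubation at 24° C; growth inhibition read photometrically 3-4 days after application.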

For a further data set, the system named is Pyrenophora teres. Description: Pyrenophora teres / barley / leaf disc preventative (net blotch). It is filed as in vivo. The settings on record: foliar, barley leaf segments, inoculated 2 days after application. The procedure, abridged:
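Barley cv. Hasso leaf segments on agar sprayed with formulated compound, inoculated with spores 2 days later. Incubated at 20 °C, 65% rh, 12 h light/dark; disease control versus untreated assessed 5–7 days after application.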

The subject of data set [9] is Botryotinia fuckeliana (Botrytis cinerea). Description: Botryotinia fuckeliana (Botrytis cinerea) / liquid culture (gray mould). The data set is classed as cell-based. The settings on record: growth inhibition photometrically 3-4 days after application, read-out: control of Botryotinia fuckeliana. The procedure, abridged: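 Conidia suspended in Vogels broth and added to compound dispensed from DMSO. Incubated at 24°C, with growth inhibition measured photometrically 3–4 days later.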

The subject of data set [10] is Blumeria graminis f. sp. tritici (Erysiphe graminis f. sp. tritici). Put plainly: Blumeria graminis f. sp. tritici / wheat / leaf disc preventative (powdery mildew on wheat). It is filed as in vivo. The settings on record: foliar, wheat leaf segments, inoculated 1 day after application. Put shortly:
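Wheat cv. Kanzler leaf segments on agar sprayed with formulated compound in water, inoculated 1 day later by shaking mildew-infected plants overhead. Incubated at 20° C, 60% rh, 24 h dark then 12 h light/12 h dark. Percent disease control versus untreated scored 6-8 days after application.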

Data set [11] has as its system Glomerella lagenarium (Colletotrichum lagenarium). Put plainly: Glomerella lagenarium (Colletotrichum lagenarium) / liquid culture (anthracnose). It is filed as cell-based. The settings on record: Colletotrichum orbiculare, growth inhibition photometrically 3-4 days after application, read-out: control of Glomerella lagenarium. The procedure, abridged: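 Cryo-stored conidia in potato dextrose broth were added to test compound in DMSO. Plates were incubated at 24° C, and growth inhibition was read photometrically 3-4 days after application.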

Data set [12] has as its system Puccinia recondita f. sp. tritici. Description: Puccinia recondita f. sp. tritici / wheat / leaf disc curative (brown rust). The data set is classed as in vivo. The settings on record: 200 ppm, wheat leaf segments, applied 1 day after inoculation. How it is done: Example B11: Puccinia recondita f. Sp. Tritici/Wheat/Leaf Disc Curative (Brown Rust)
Wheat leaf segments cv. Kanzler are placed on agar in multiwell plates (24-well format). The leaf segments are inoculated with a spore suspension of the fungus. Plates are stored in darkness at 19° C. and 75% rh. The formulated test compound diluted in water is applied 1 day after inoculation. The leaf segments are incubated at 19° C. and 75% rh under a light regime of 12 h light/12 h darkness in a climate cabinet and the activity of a compound is assessed as percent disease control compared to untreated when an appropriate level of disease damage appears in untreated check leaf segments (6-8 days after application).

For another data set, the system named is Alternaria solani. Put plainly: Alternaria solani / tomato / leaf disc (early blight). To be noted: foliar, tomato leaf disks, sprayed 2 days before inoculation, compared to untreated control. It is filed as in vivo. How it is done: Example B1: Alternaria solani/Tomato/Leaf Disc (Early Blight) Tomato leaf disks cv. Baby are placed on agar in multiwell plates (24-well format) and sprayed with the formulated test compound diluted in water. The leaf disks are inoculated with a spore suspension of the fungus 2 days after application. The inoculated leaf disks are incubated at 23° C./21° C.

As to `Cn1cc(C(C)(CNC(=O)c2cc(-c3ccc(F)cc3F)no2)c2cccc(Cl)n2)cn1` (stereo not shown) [Compound P-42, N-[2-(6-chloro-2-pyridyl)-2-(1-methylpyrazol-4-yl)propyl]-3-(2,4-difluorophenyl) isoxazole-5-carboxamide], the melting point lay within 126 to 128 °C. In data set [1], the pest or weed control at 200 ppm was at least 80%. Further, the inhibition of growth at 20 ppm in data set [2] is at least 80%. Also, the pest or weed control at 200 ppm in data set [3] was at least 80%. The inhibition of growth at 20 ppm in [4] is at least 80%. The inhibition of growth at 20 ppm in data set [5] is at least 80%. Moreover, the inhibition of growth at 20 ppm in the data set on Fusarium culmorum [6] was at least 80%. This compound also displayed a pest or weed control at 200 ppm in data set [7] of at least 80%. In addition, in the data set with Fusarium culmorum [8], the pest or weed control at 200 ppm was at least 80%. Also, the inhibition of growth at 20 ppm in the data set with Sclerotinia sclerotiorum was at least 80%. For the same compound, the pest or weed control at 200 ppm with Pyrenophora teres was at least 80%. In addition, the inhibition of growth at 20 ppm in data set [9] is at least 80%.
Turning to `Cc1ccc(C(C)(CNC(=O)c2cc(-c3ccc(F)cc3F)on2)c2cnn(C)c2)nc1` (stereo not shown) [Compound P-19, 5-(2,4-difluorophenyl)-N-[2-(1-methylpyrazol-4-yl)-2-(5-methyl-2-pyridyl)propyl] isoxazole-3-carboxamide], the pest or weed control at 200 ppm (in data set [10]; in the data set with Pyrenophora teres; with Alternaria solani) was at least 80% in each case. The inhibition of growth at 20 ppm in data set [11], in data set [4], in data set [5] and in data set [9] was at least 80% in each case. Further, in [12], the “control of Puccinia recondita f. sp. tritici” value is given as “at least 80%”.
Regarding `CO/N=C(\C)c1cccc(C(C)(CNC(=O)c2cc(-c3ccc(F)cc3F)on2)c2cnn(C)c2)n1` (stereo not shown) [Compound P-49, 5-(2,4-difluorophenyl)-N-[2-[6-[(E)-N-methoxy-C-methyl-carbonimidoyl]-2-pyridyl]-2-(1-methylpyrazol-4-lyl)propyl]isoxazole-3-carboxamide], the pest or weed control at 200 ppm (in data set [10]; in data set [3]; in data set [7]; in the data set on Fusarium culmorum [8]; in the data set on Pyrenophora teres; in the data set with Alternaria solani) was at least 80% in each case. For the same compound, the inhibition of growth at 20 ppm (in data set [11]; in data set [2]; in [4]; in data set [5]; with Fusarium culmorum [6]; in the data set on Sclerotinia sclerotiorum) was at least 80% throughout. For the same compound, in [9], the inhibition of growth at 20 ppm is at least 80%.
Regarding `Cn1cc(C(C)(CNC(=O)c2cc(-c3ccc(F)cc3F)on2)c2cccc(Cl)n2)cn1` (stereo not shown) [Compound P-10, N-[2-(6-chloro-2-pyridyl)-2-(1-methylpyrazol-4-yl)propyl]-5-(2,4-difluorophenyl)isoxazole-3-carboxamide], the pest or weed control at 200 ppm (in data set [10]; in data set [3]; in data set [7]; in the data set with Fusarium culmorum [8]; in the data set with Pyrenophora teres; with Alternaria solani) was at least 80% throughout. The inhibition of growth at 20 ppm (in [11]; in data set [2]; in [4]; in data set [5]; in the data set on Fusarium culmorum [6]; with Sclerotinia sclerotiorum) was at least 80% in each case. In addition, the inhibition of growth at 20 ppm in [9] is at least 80%.
